Test results reported in US12252524B2, “GIP/GLP1 co-agonist compounds” (Eli Lilly and Company, priority 2018, dated 2025).
Numbered stars: 1 amine (or outer) side, 2 acyl side, 3 side chain; on linkers, the order of the positions; unused ones are H or OH. Square brackets hold non-standard residues; d marks the D form. Side chains are listed from the residue outwards. Peptide text beside a SMILES is read from it. * marks the point of attachment. C20 diacid = O=C(O)CCCCCCCCCCCCCCCCCCC(=O)*; αMePhe(2-F) = C[C@](N)(Cc1ccccc1F)C(=O)O; γGlu = O=C(O)[C@H](CCC(=O)[*:2])N[*:1]; 3Pal = N[C@@H](Cc1cccnc1)C(=O)O; 4Pal = N[C@@H](Cc1ccncc1)C(=O)O; αMeL = CC(C)C[C@](C)(N)C(=O)O; AEEA = NCCOCCOCC(=O)O; Aib = CC(C)(N)C(=O)O

Key:
human Gcg receptor = target: T1, human Gcg receptor (Homo sapiens, UniProt P47871); test: [125I]-Glucagon binding (SPA), human Gcg receptor; details: read-out: hGLcgR Ki, nM (SEM, n)
T1 construct: expressed in transfected cells; crude membranes
T1 sequence (P47871 26-477): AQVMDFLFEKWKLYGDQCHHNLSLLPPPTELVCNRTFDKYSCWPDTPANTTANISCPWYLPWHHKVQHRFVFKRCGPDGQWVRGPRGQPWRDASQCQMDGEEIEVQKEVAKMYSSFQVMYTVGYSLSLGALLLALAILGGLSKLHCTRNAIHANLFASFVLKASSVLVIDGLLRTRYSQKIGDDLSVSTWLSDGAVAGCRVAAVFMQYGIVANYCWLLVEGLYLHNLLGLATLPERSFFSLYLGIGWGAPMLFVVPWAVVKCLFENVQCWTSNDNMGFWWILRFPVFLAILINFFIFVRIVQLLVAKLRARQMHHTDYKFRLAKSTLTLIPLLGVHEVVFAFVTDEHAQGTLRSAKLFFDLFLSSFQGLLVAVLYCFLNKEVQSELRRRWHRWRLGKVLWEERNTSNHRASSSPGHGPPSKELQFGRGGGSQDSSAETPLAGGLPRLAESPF
Summary of the method: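 Cell pellets were lysed in hypotonic Tris buffer, pH 7.5, homogenized, and spun at low then high speed to give crude membranes. Ki was derived from the fitted IC50.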

human GIP receptor = target: T2, human GIP receptor (Homo sapiens, UniProt P48546); test: [125I]-GIP binding (SPA), human GIP receptor; details: read-out: hGIPR Ki, nM (SEM, n)
T2 construct: expressed in transfected cells; crude membranes
T2 sequence (P48546 22-466): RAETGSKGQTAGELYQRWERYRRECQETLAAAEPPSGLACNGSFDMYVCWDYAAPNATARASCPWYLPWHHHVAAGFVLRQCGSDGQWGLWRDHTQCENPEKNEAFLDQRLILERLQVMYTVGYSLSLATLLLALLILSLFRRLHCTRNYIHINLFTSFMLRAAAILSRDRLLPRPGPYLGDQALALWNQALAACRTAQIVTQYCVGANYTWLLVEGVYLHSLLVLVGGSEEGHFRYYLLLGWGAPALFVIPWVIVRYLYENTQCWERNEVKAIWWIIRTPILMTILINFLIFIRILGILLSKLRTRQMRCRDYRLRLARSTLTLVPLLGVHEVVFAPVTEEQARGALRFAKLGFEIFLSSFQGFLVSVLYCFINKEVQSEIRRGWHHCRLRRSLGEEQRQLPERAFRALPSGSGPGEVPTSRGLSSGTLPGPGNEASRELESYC

[1] = target: human GLP-1 receptor (GLP-1R) (Homo sapiens, UniProt P43220); test: cAMP pharmacological functional assay in presence of casein, hGLP-1R; format: cell-based; details: HEK293 cells expressing hGLP-1R, 0.1% Casein, geometric mean; read-out: hGLP1R cAMP Rel EC50 nM (SEM, n)
Chain of human GLP-1 receptor (GLP-1R) (P43220 24-463): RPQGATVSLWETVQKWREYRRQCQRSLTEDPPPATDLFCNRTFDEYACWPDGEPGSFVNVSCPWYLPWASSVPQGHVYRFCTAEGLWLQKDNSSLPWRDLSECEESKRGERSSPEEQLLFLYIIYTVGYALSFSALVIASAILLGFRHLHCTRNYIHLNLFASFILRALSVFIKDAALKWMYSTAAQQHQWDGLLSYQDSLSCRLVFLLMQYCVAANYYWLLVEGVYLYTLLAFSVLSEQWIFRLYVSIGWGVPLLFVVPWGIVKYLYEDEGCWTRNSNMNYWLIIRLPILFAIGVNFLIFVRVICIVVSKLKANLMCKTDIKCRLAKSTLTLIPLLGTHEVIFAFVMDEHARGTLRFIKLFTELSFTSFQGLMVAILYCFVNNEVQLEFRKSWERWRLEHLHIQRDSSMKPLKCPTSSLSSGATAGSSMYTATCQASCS

[2] = target: T3, gastric inhibitory peptide receptor (GIPR) (Homo sapiens, UniProt P48546); test: cAMP pharmacological functional assay in presence of casein, hGIPR; format: cell-based; details: HEK293 cells expressing hGIPR, 0.1% Casein, geometric mean; read-out: hGIPR cAMP Rel EC50 nM (SEM, n)
T3 sequence (P48546 22-466): T2 sequence (P48546 22-466)

human GLP-1R = human GLP-1R (Homo sapiens, UniProt P43220); test: [125I]-GLP-1 binding (SPA), human GLP-1 receptor; set-up: expressed in transfected cells; crude membranes; details: read-out: hGLP1R Ki, (nM) (SEM, n)
Chain of human GLP-1R (P43220 24-463): as above
Summary of the method: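 Assay buffer: HEPES 25 mM, pH 7.4, CaCl2 2.5 mM, MgCl2 1 mM, with EDTA-free protease inhibitors. Receptor came from crude cell membranes prepared by homogenization and centrifugation at 4° C. IC50s came from four-parameter fits (maximum, minimum, IC50, Hill slope) and were expressed as Ki geometric means with SEM.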

Question: Which results are given for `CC[C@H](C)[C@H](NC(=O)[C@H](CC(C)C)NC(=O)[C@H](Cc1ccc(O)cc1)NC(=O)[C@H](CCC(=O)O)NC(=O)[C@@H](NC(=O)[C@H](Cc1ccccc1)NC(=O)[C@H](CCC(=O)O)NC(=O)C(C)(C)NC(=O)[C@H](CCC(N)=O)NC(=O)[C@H](C)NC(=O)[C@H](CCCCNC(=O)COCCOCCNC(=O)COCCOCCNC(=O)CC[C@H](NC(=O)CCCCCCCCCCCCCCCCCCC(=O)O)C(=O)O)NC(=O)[C@H](CCC(=O)O)NC(=O)[C@H](CC(=O)O)NC(=O)[C@H](CC(C)C)NC(=O)[C@](C)(CC(C)C)NC(=O)[C@@H](NC(=O)[C@H](CO)NC(=O)[C@H](Cc1cccnc1)NC(=O)[C@H](CC(=O)O)NC(=O)[C@H](CO)NC(=O)[C@@H](NC(=O)[C@](C)(Cc1ccccc1F)NC(=O)[C@@H](NC(=O)CNC(=O)[C@H](CCC(=O)O)NC(=O)C(C)(C)NC(=O)[C@@H](N)Cc1ccc(O)cc1)[C@@H](C)O)[C@@H](C)O)[C@@H](C)CC)[C@@H](C)CC)C(=O)N[C@@H](CCC(=O)O)C(=O)NCC(=O)NCC(=O)N1CCC[C@H]1C(=O)N[C@@H](CO)C(=O)N[C@@H](CO)C(=O)NCC(=O)N[C@@H](C)C(=O)N1CCC[C@H]1C(=O)N1CCC[C@H]1C(=O)N1CCC[C@H]1C(=O)N[C@@H](CO)C(N)=O` [Example 157] (H-Y[Aib]EGT[αMePhe(2-F)]TSD[3Pal]SI[αMeL]LDEK([AEEA-AEEA-γGlu-C20 diacid])AQ[Aib]EFIEYLIEGGPSSGAPPPS-NH2)?
Answer: Ki (human Gcg receptor): 179 nM; Ki (human GIP receptor): 0.0937 nM; EC50 [1]: 0.0431 nM; EC50 [2]: 0.0453 nM; Ki (human GLP-1R): 8.97 nM

Question: Which Ki (human Gcg receptor) does the source give for `CC[C@H](C)[C@H](NC(=O)[C@H](CC(C)C)NC(=O)[C@H](Cc1ccc(O)cc1)NC(=O)[C@H](CCC(=O)O)NC(=O)[C@@H](NC(=O)[C@H](Cc1ccccc1)NC(=O)[C@H](CCC(=O)O)NC(=O)C(C)(C)NC(=O)[C@H](CCC(N)=O)NC(=O)[C@H](C)NC(=O)[C@H](CCCCNC(=O)COCCOCCNC(=O)COCCOCCNC(=O)CC[C@H](NC(=O)CCCCCCCCCCCCCCCCCCC(=O)O)C(=O)O)NC(=O)[C@H](CCC(=O)O)NC(=O)[C@H](CC(=O)O)NC(=O)[C@H](CC(C)C)NC(=O)[C@](C)(CC(C)C)NC(=O)[C@@H](NC(=O)[C@H](CO)NC(=O)[C@H](Cc1ccncc1)NC(=O)[C@H](CC(=O)O)NC(=O)[C@H](CO)NC(=O)[C@@H](NC(=O)[C@](C)(Cc1ccccc1F)NC(=O)[C@@H](NC(=O)CNC(=O)[C@H](CCC(=O)O)NC(=O)C(C)(C)NC(=O)[C@@H](N)Cc1ccc(O)cc1)[C@@H](C)O)[C@@H](C)O)[C@@H](C)CC)[C@@H](C)CC)C(=O)N[C@@H](CCC(=O)O)C(=O)NCC(=O)NCC(=O)N1CCC[C@H]1C(=O)N[C@@H](CO)C(=O)N[C@@H](CO)C(=O)NCC(=O)N[C@@H](C)C(=O)N1CCC[C@H]1C(=O)N1CCC[C@H]1C(=O)N1CCC[C@H]1C(=O)N[C@@H](CO)C(N)=O` [Example 158] (H-Y[Aib]EGT[αMePhe(2-F)]TSD[4Pal]SI[αMeL]LDEK([AEEA-AEEA-γGlu-C20 diacid])AQ[Aib]EFIEYLIEGGPSSGAPPPS-NH2; N-terminus assumed) here?
Answer: 285 nM

Question: And the Ki (human GIP receptor)?
Answer: 0.114 nM

Question: What about the EC50 [1] of the same molecule?
Answer: 0.0374 nM

Question: What about the EC50 [2] of the same molecule?
Answer: 0.0454 nM

Question: And the Ki (human GLP-1R)?
Answer: 11.8 nM
